“And” between values parts separate entries of the source, which are not always exact repeats. Equal entries are not always repeated. The source made the active and inactive calls. How the calls were made is not given here.
Tested on: M. tuberculosis H37Rv growth inhibition with meropenem
Test: H37Rv growth inhibition with and without meropenem, dose response, set 2 (AID 504703);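 further: growth ran 7 days at 37 °C then overnight with Alamar Blue before reading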
[1] = M. tuberculosis H37Rv growth inhibition, measured here: IC50 without meropenem
[2] = M. tuberculosis H37Rv growth inhibition, measured here: IC90 without meropenem
[3] = measured here: IC90 with meropenem

Structure (SMILES)	IC50 [1]	IC90 [2]	IC50	IC90 [3]
CC(=O)c1c(C)n(-c2ccccc2C)c2ccc(O)cc12	> 25 µM	> 25 µM		
COc1cccc(-c2ccc(-c3noc(-c4ccccc4F)n3)c(OC)n2)c1	> 25 µM	> 25 µM	> 25 µM (inactive)	> 25 µM
Cc1ccccc1C(=O)Nc1nc2ccccc2[nH]1	17.9 µM	> 25 µM	8.75 µM (inactive)	> 25 µM
CCOC(=O)c1cnc2cc(-c3ccc(C(C)(C)C)cc3)nn2c1N	1.15 µM and 4.11 µM	> 25 µM	1.99 µM (inactive)	> 25 µM
CCC(=O)N/C(N)=N/c1nc2ccccc2o1	> 25 µM	> 25 µM		
O=C(COc1cccc2ccccc12)Nc1nc2ccccc2s1	> 25 µM	> 25 µM		
CCOc1ccc2nc(NC(=O)COc3ccccc3)sc2c1	> 25 µM	> 25 µM		
O=C(COc1ccccc1)Nc1nc2ccccc2s1	> 25 µM	> 25 µM		
CC(=O)c1c(C)n(-c2ccccc2)c2ccccc12	> 25 µM	> 25 µM	11.6 µM (inactive)	> 25 µM
COc1ccc2oc(C(=O)Nc3nc4ccccc4[nH]3)c(C)c2c1		> 25 µM	10.5 µM (inactive)	> 25 µM
Cc1cc2cc(F)ccc2n1-c1ccccc1	> 25 µM	> 25 µM		
Cc1cccnc1NC(=S)NC(=O)c1cncc(Br)c1	4.21 µM	> 25 µM	2.71 µM (inactive)	> 25 µM
N/C(=N\c1nc2ccccc2o1)NC(=O)c1ccccc1	> 25 µM	> 25 µM		
O=C(COc1ccccc1Cl)Nc1nc2ccccc2s1	> 25 µM	> 25 µM		
CCOc1ccc2[nH]cc(C(=O)OC)c2c1	> 25 µM	> 25 µM	> 25 µM (inactive)	> 25 µM
Cc1cc(C)c(OCC(=O)Nc2nc3ccccc3[nH]2)c(C)c1	> 18.8 µM and 7.46 µM	> 25 µM	5.55 µM (inactive)	> 25 µM
Cc1ccccc1OCC(=O)Nc1ncn[nH]1	> 25 µM	> 25 µM		
COc1ccc2c(c1)cc(C)n2-c1ccccc1	> 25 µM	> 25 µM		> 25 µM
O=C(CSc1n[nH]c(=O)n1C1CC1)c1ccc2c(c1)OCCO2	10.8 µM	> 25 µM	4.57 µM (inactive)	> 25 µM
OCCCc1cn(-c2ccccc2)c2ccccc12	> 25 µM	> 25 µM	14.2 µM (inactive)	> 25 µM

Structure (SMILES)	IC50 [1]	IC90 [2]	IC50	IC90 [3]
CCOc1ccc2nc(NC(=O)C(C)Oc3ccccc3F)sc2c1 (configuration not stated)	> 25 µM	> 25 µM		
CCOc1ccc2c(c1)c(C(C)=O)c(C)n2-c1ccccc1C	23.2 µM	> 25 µM		12.1 µM
COc1cccc(NC(=O)C2CC2)c1	> 25 µM	> 25 µM		> 25 µM
COC(=O)c1ccc2nc(NC(=O)COc3ccccc3)sc2c1	> 25 µM	> 25 µM		
CC(C)(C)c1ccc(OCC(=O)Nc2nc3ccccc3s2)cc1	> 25 µM	> 25 µM		
O=C(COC(=O)C1CC1)c1c[nH]c2ccccc12	1.15 µM and 2.08 µM	> 6.25 µM		> 25 µM
CCOc1ccc2nc(NC(=O)Cc3ccc(OC)cc3)sc2c1	> 25 µM	> 25 µM		
Oc1ccc2[nH]ccc2c1	> 25 µM	> 25 µM		
Cc1cccc(C)c1OCC(=O)Nc1nc2ccc(Cl)cc2s1	> 25 µM	> 25 µM		
CCOc1ccc2nc(NC(=O)C3(c4ccccc4)CCCC3)sc2c1	2.08 µM	8.95 µM	1.2 µM (inactive)	4.16 µM
CCc1ccc2nc(/N=C(\N)NC(=O)c3ccccc3)nc(C)c2c1	1.86 µM	> 12.5 µM	0.82 µM (inactive)	> 25 µM
Cc1c(OCc2ccc(C(=O)O)cc2)ccc2c(-c3ccccc3)cc(=O)oc12	> 25 µM	> 25 µM		> 25 µM
Cc1ccc2sc(NC(=O)COc3ccccc3)nc2c1C	23.7 µM	> 25 µM		
Cc1ccc(OCC(=O)Nc2nnn(C)n2)c(C)c1	> 25 µM	> 25 µM		
CC(=O)c1c(C)n(-c2ccccc2)c2ccc(OC(C)C)cc12	> 25 µM	> 25 µM		
O=C(COc1ccc2c3c(c(=O)oc2c1)CCC3)Nc1nc2ccccc2[nH]1	> 25 µM	> 25 µM		
CC(C)Cn1c2c(c(O)c(C(=O)Nc3nccs3)c1=O)CCCC2	> 25 µM	> 25 µM		
COc1ccc2c(c1)c(C(C)=O)c(C)n2-c1ccccc1	> 25 µM	> 25 µM		> 18.8 µM
Cc1ccc(OCC(=O)Nc2nc3c(Cl)cccc3s2)cc1	> 25 µM	> 25 µM		
O=C(Cc1csc(-c2ccccc2F)n1)Nc1nc2ccccc2[nH]1	> 25 µM	> 25 µM		

Structure (SMILES)	IC50 [1]	IC90 [2]	IC50	IC90 [3]
c1ccc(Nc2ncnc3c2oc2ccccc23)cc1	> 18.8 µM and 11.5 µM	> 18.8 µM	> 18.8 µM (inactive) and 5.29 µM (inactive)	> 25 µM
N/C(=N\c1nc2ccccc2o1)NC(=O)COc1ccc2ccccc2c1	> 25 µM	> 25 µM		
S=C(Nc1ccccc1)Nc1ccc(Cl)cn1	> 18.8 µM and 17.3 µM	> 25 µM		> 25 µM
Cc1ccc(C(C)C)c(OCC(=O)Nc2nc3ccccc3s2)c1	> 25 µM	> 25 µM		
CC(C)(Oc1ccc(Cl)cc1)C(=O)Nc1nc2ccccc2s1	> 25 µM	> 25 µM		
CC(Oc1ccccc1)C(=O)Nc1nc2ccc(S(C)(=O)=O)cc2s1 (configuration not stated)	> 25 µM	> 25 µM		
N/C(=N\c1nc2ccccc2o1)NC(=O)C1CC1	> 25 µM	> 25 µM		
COC(=O)c1sc(-c2ccc(C(C)(C)C)cc2)cc1NC(=O)CCC(=O)O	13.5 µM and 9.45 µM	> 25 µM	7.32 µM (inactive)	> 25 µM
CCOc1ccc2nc(NC(=O)COc3ccc(F)cc3)sc2c1	> 25 µM	> 25 µM		
CC(=O)Nc1ccc2nc(NC(=O)COc3ccccc3)sc2c1	> 25 µM	> 25 µM		
CCCN1CC(O)=C(c2nc3ccccc3s2)C1=N	> 25 µM	> 25 µM		
CCOc1ccc2c(c1)c(CC)c(C)n2-c1ccccc1	> 25 µM	> 25 µM		> 25 µM
Cc1ccccc1OCC(=O)Nc1ccccc1-c1ccccc1	> 25 µM	> 25 µM	14.6 µM (inactive)	> 25 µM
COc1ccc(C(=O)Nc2ccc3nc(N4CCCCC4)cc(C)c3c2)c(OC)c1	> 25 µM	> 25 µM	17.6 µM (inactive)	> 25 µM
COC(=O)c1c(C)[nH]c2ccc(Cl)cc12	> 25 µM	> 25 µM		
O=C(CC12CC3CC(CC(C3)C1)C2)NCc1ccc(F)cc1	> 25 µM	> 25 µM		
COC(=O)c1c(C)[nH]c2ccccc12	> 25 µM	> 25 µM		
Cc1cc2ccccc2n1-c1ccccc1	> 25 µM	> 25 µM		
COc1ccc2nc(NC(=O)COc3ccccc3)sc2c1	> 25 µM	> 25 µM		

— PubChem BioAssay AID504703 (Southern Research Specialized Biocontainment Screening …, 2011)
